Measurements: patent US20240172748A1, “A SYNERGISTIC PLANT GROWTH STIMULANT COMPOSITION COMPRISING MELATONIN AND NITROGENOUS COMPOUNDS FOR IMPROVING PLANT GROWTH AND DECREASING BIOTIC-ABIOTIC STRESSES ON PLANTS” (FERTIS INDIA PVT. LTD., priority 2021, published 2024)

Legend:
Type in all cases: in vivo
Paddy [1] = experiment: Percentage of protein in grain, field trial on Paddy; settings: area 10-meter square, 1 gm/liter foliar application
Description: Example 11: Percentage of Protein in Grain
(§1) Field trail results on Paddy—Area 10-meter square 1 gm/liter Foliar Application

Paddy [2] = experiment: Total protein content in percentage in grain, field trial on Paddy; settings: area 10-meter square, lgm/liter foliar application
Description: Example 12: Methionin with Plant Growth Hormone—Total Protein Content in Percentage in Grain
Field trail results on Paddy—Area 10-meter square lgm/liter Foliar Application

Paddy [3] = experiment: Micronutrient analysis in grain, field trial on Paddy; settings: area 10-meter square, 1 gm/liter foliar application
Description: Example 9: Micronutrient Analysis in Grain
as §1

Row | Compound | % of Protein (Paddy [1]) | Total Protein content in % (Paddy [2]) | further results
1 | CNC(=O)NC [Dimethyl urea] | 0.0081% |  | 
2 | O=C(Nc1ccccc1)Nc1ccccc1 [Diphenyl urea] | 0.0089% |  | 
3 | C=C1C[C@]23C[C@@]1(O)CC[C@H]2[C@@]12C=C[C@H](O)[C@@](C)(C(=O)O1)[C@H]2[C@@H]3C(=O)O [Gibberellic acid] |  | 0.084% | 
4 | COc1ccc2[nH]cc(CCNC(C)=O)c2c1 [Melatonin] |  | 0.076% | B (Boron) (Paddy [3]): 40.30 ppm; Ca (Calcium) (Paddy [3]): 375.00 ppm; Fe (Iron) (Paddy [3]): 300.00 ppm; Mg (Magnesium) (Paddy [3]): 609.00 ppm; Mn (Manganese) (Paddy [3]): 45.00 ppm; Zn (Zinc) (Paddy [3]): 36.50 ppm
5 | O=CNC(=O)NC=O [NN DFU, N,N′-Diformyl Urea] | 0.0117% |  | 
6 | NC(N)=O [Urea] | 0.0063% |  | 
